From ChEMBL document CHEMBL4419169, “Novel Ferroportin Inhibitors” (2018)
One block for each compound: values may come before it. Active and inactive are the calls of the source. The calls are words filed in the database; no cut-off is given here.

How the values were obtained:
Ferroportin [1] = molecular target: T1, Ferroportin (Mus musculus, UniProt Q9JHI9); assay: Inhibition of ferroportin in mouse J774 cells assessed as reduction in binding of hepcidin to ferroportin pre-incubated for 15 mins before TMR-hepcidin addition and further incubated for 2 hrs by fluorescence based hepcidin internalization assay; assay type: cell-based
T1 sequence (Q9JHI9 whole entry): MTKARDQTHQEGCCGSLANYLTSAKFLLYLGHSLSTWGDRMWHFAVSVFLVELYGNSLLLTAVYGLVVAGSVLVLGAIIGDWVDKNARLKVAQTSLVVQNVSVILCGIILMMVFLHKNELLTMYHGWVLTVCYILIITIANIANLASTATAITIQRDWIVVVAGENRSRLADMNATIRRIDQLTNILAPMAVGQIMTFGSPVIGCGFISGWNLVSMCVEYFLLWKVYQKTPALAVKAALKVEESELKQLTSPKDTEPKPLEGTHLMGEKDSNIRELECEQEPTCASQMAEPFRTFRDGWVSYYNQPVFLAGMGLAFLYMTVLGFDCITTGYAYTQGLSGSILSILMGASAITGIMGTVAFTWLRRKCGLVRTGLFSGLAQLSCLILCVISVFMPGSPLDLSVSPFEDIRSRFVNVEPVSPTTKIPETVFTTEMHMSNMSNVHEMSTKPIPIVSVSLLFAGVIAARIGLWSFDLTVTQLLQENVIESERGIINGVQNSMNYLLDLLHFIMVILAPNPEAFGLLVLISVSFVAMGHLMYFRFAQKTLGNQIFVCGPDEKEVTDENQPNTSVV

Ferroportin [2] = molecular target: T2, Ferroportin (Homo sapiens, UniProt Q9NP59); assay: Inhibition of GFP-tagged human ferroportin expressed in HEK293 #354 cells assessed as reduction in Fpn-mediated iron efflux incubated overnight by iron regulatory element -driven beta-lactamase reporter gene assay; assay type: cell-based
T2 sequence (Q9NP59 whole entry): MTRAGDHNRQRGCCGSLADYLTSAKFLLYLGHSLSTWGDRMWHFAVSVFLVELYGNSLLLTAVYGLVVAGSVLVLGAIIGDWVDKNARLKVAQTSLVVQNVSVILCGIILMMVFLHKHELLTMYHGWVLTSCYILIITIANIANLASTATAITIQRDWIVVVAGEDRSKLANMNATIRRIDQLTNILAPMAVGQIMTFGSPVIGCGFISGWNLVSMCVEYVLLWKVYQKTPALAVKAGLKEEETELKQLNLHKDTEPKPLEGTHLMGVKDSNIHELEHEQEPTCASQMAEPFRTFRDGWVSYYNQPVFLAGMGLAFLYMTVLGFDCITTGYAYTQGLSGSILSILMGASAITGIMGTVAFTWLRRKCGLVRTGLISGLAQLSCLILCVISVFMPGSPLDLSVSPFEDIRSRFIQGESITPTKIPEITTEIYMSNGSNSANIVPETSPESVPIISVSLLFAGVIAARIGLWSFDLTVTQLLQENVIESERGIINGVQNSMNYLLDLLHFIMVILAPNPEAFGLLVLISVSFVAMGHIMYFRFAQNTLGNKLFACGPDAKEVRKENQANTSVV

Ferroportin [3] = molecular target: T2, Ferroportin; assay: Inhibition of GFP-tagged human ferroportin expressed in HEK293 #354 cells assessed as induction of ferroportin internalization and degradation incubated overnight by FACS assay; assay type: cell-based; conditions: read-out: EC50 (the source's name)
Rattus norvegicus [4] = assay: Prevention of iron absorption in anemic Wistar rat model of iron absorption assessed as inhibition of increase in serum iron at 100 mg/kg, po pre-dosed 1 hr before ferrous sulfate dosing and measured 3 hours after iron dosing; assay type: functional
Mus musculus [5] = assay: Disease modifying capacity in mouse model of transfusion-independent beta-thalassemia intermedia assessed as increase in blood erythrocyte counts at 20 mg/kg, po BID for 46 days relative to control; assay type: functional
Mus musculus [6] = assay: Disease modifying capacity in mouse model of transfusion-independent beta-thalassemia intermedia assessed as increase in hematocrit levels at 20 mg/kg, po BID for 46 days relative to control; assay type: functional
Mus musculus [7] = assay: Prevention of iron overload in beta2-microglobulin deficient male mouse assessed as reduction in [58Fe] liver iron accumulation at 60 mg/kg, po BID pre-dosed followed by exposure to iron-containing water and same regime was repeated for 14 days relative to control; assay type: functional; design: scale not given: the % may be the effect or the level left
Mus musculus [8] = assay: Prevention of iron overload in beta2-microglobulin deficient female mouse assessed as increase in spleen iron accumulation at 60 mg/kg, po BID pre-dosed followed by exposure to iron-containing water and same regime was repeated for 14 days relative to control; assay type: functional
[9] = molecular target: T3, Ferroportin (Mus musculus) (UniProt Q9JHI9); assay: Inhibition of ferroportin in mouse J774 cells assessed as induce ferroportin ubiquitination and degradation at […] incubated for 10 mins by immunoprecipitation assay; assay type: cell-based
T3 sequence (whole entry): T1 sequence (Q9JHI9 whole entry)

Mus musculus [10] = assay: Induction of hypoferremia in wild type C57BL/6 mouse assessed as decrease in serum iron levels at 10 mg/kg, po measured after 3 hrs post dose; assay type: functional; design: scale not given: the % may be the effect or the level left
Mus musculus [11] = assay: Disease modifying capacity in mouse model of transfusion-independent beta-thalassemia intermedia assessed as increase in blood erythrocyte counts at 60 mg/kg, po BID for 46 days relative to control; assay type: functional
Mus musculus [12] = assay: Disease modifying capacity in mouse model of transfusion-independent beta-thalassemia intermedia assessed as decrease in [58Fe] spleen iron content at 20 mg/kg, po BID for 46 days relative to control; assay type: functional; design: scale not given: the % may be the effect or the level left
Mus musculus [13] = assay: Prevention of iron overload in beta2-microglobulin deficient female mouse assessed as reduction in total liver iron accumulation at 60 mg/kg, po BID pre-dosed followed by exposure to iron-containing water and same regime was repeated for 14 days relative to control; assay type: functional; design: scale not given: the % may be the effect or the level left
Mus musculus [14] = assay: Disease modifying capacity in mouse model of transfusion-independent beta-thalassemia intermedia assessed as prevention of liver [58Fe] loading at 60 mg/kg, po BID for 46 days relative to control; assay type: functional
Mus musculus [15] = assay: Induction of hypoferremia in wild type C57BL/6 mouse assessed as decrease in serum iron levels at 100 mg/kg, po measured after 3 hrs post dose; assay type: functional; design: scale not given: the % may be the effect or the level left
Mus musculus [16] = assay: Prevention of hyperferremia in iron overloaded beta2-microglobulin deficient male mouse assessed as reduction in serum iron level at 60 mg/kg, po measured after 1 hr relative to control; assay type: functional; design: scale not given: the % may be the effect or the level left
Mus musculus [17] = assay: Prevention of hyperferremia in iron overloaded beta2-microglobulin deficient mouse assessed as reduction in serum iron level at 50 mg/kg, po measured after 3 hrs relative to control; assay type: functional, organism-based
Rattus norvegicus [18] = assay: Prevention of iron absorption in anemic Wistar rat model of iron absorption assessed as inhibition of increase in serum iron at 10 mg/kg, po pre-dosed 1 hr before ferrous sulfate dosing and measured 3 hours after iron dosing; assay type: functional
Mus musculus [19] = assay: Correction of anemia in mouse model of transfusion-independent beta-thalassemia intermedia assessed as hemoglobin levels at 60 mg/kg, po BID for 46 days and measured at day 20 to 48 (reference value: 70 to 80 g/L); assay type: functional
Mus musculus [20] = assay: Disease modifying capacity in mouse model of transfusion-independent beta-thalassemia intermedia assessed as decrease in [58Fe] spleen iron content at 60 mg/kg, po BID for 46 days relative to control; assay type: functional; design: scale not given: the % may be the effect or the level left
Mus musculus [21] = assay: Induction of hypoferremia in wild type C57BL/6 mouse assessed as decrease in serum iron levels at 30 mg/kg, po measured after 3 hrs post dose; assay type: functional; design: scale not given: the % may be the effect or the level left
Mus musculus [22] = assay: Disease modifying capacity in mouse model of transfusion-independent beta-thalassemia intermedia assessed as decrease in leukocyte counts level at 20 mg/kg, po BID for 46 days relative to control; assay type: functional; design: scale not given: the % may be the effect or the level left
Mus musculus [23] = assay: Disease modifying capacity in mouse model of transfusion-independent beta-thalassemia intermedia assessed as decrease in blood reticulocyte counts at 60 mg/kg, po BID for 46 days relative to control; assay type: functional; design: scale not given: the % may be the effect or the level left
[24] = molecular target: T3, Ferroportin (Mus musculus); assay: Inhibition of ferroportin in mouse J774 cells assessed as induce ferroportin ubiquitination and degradation at […] incubated for 120 mins by immunoprecipitation assay; assay type: cell-based
Mus musculus [25] = assay: Prevention of hyperferremia in iron overloaded beta2-microglobulin deficient female mouse assessed as reduction in serum iron level at 60 mg/kg, po measured after 1 hr relative to control; assay type: functional; design: scale not given: the % may be the effect or the level left
Mus musculus [26] = assay: Disease modifying capacity in mouse model of transfusion-independent beta-thalassemia intermedia assessed as increase in hematocrit levels at 60 mg/kg, po BID for 46 days relative to control; assay type: functional
Mus musculus [27] = assay: Prevention of iron overload in beta2-microglobulin deficient female mouse assessed as reduction in [58Fe] liver iron accumulation at 60 mg/kg, po BID pre-dosed followed by exposure to iron-containing water and same regime was repeated for 14 days relative to control; assay type: functional; design: scale not given: the % may be the effect or the level left
Mus musculus [28] = assay: Disease modifying capacity in mouse model of transfusion-independent beta-thalassemia intermedia assessed as decrease in relative spleen weight at 60 mg/kg, po BID for 46 days relative to control; assay type: functional; design: scale not given: the % may be the effect or the level left
Rattus norvegicus [29] = assay: Prevention of iron absorption in anemic Wistar rat model of iron absorption assessed as inhibition of increase in serum iron at 30 mg/kg, po pre-dosed 1 hr before ferrous sulfate dosing and measured 3 hours after iron dosing; assay type: functional
Mus musculus [30] = assay: Prevention of iron overload in beta2-microglobulin deficient male mouse assessed as increase in spleen iron accumulation at 60 mg/kg, po BID pre-dosed followed by exposure to iron-containing water and same regime was repeated for 14 days relative to control; assay type: functional
Mus musculus [31] = assay: Disease modifying capacity in mouse model of transfusion-independent beta-thalassemia intermedia assessed as prevention of liver [58Fe] loading at 20 mg/kg, po BID for 46 days relative to control; assay type: functional
Mus musculus [32] = assay: Disease modifying capacity in mouse model of transfusion-independent beta-thalassemia intermedia assessed as decrease in blood reticulocyte counts at 20 mg/kg, po BID for 46 days relative to control; assay type: functional; design: scale not given: the % may be the effect or the level left
Mus musculus [33] = assay: Prevention of iron overload in beta2-microglobulin deficient male mouse assessed as reduction in total liver iron accumulation at 60 mg/kg, po BID pre-dosed followed by exposure to iron-containing water and same regime was repeated for 14 days relative to control; assay type: functional; design: scale not given: the % may be the effect or the level left

SMILES: O=C(NCc1ncccc1F)c1cn(CCNCCc2nc3ccccc3[nH]2)nn1
IC50 (Ferroportin [1]): 11 nM
EC50 (Ferroportin [2]): 170 nM
DC50 (Ferroportin [3]): 69 nM

inhibition [9]: Active
inhibition [24]: Active
SMILES: Cl.Cl.Cl.O=C(NCc1ncccc1F)c1csc(CCNCc2nc3ccccc3[nH]2)n1
inhibition in vivo at 100 mg/kg (Rattus norvegicus [4]): 97%
Activity (Mus musculus [5]): 2%
Activity (Mus musculus [6]): 0%
Activity (Mus musculus [7]): 81 - 95%
Activity (Mus musculus [8]): 9 - 85%
Activity (Mus musculus [10]): 10%
Activity (Mus musculus [11]): 22%
Activity (Mus musculus [12]): 19%
Activity (Mus musculus [13]): 66 - 67%
Activity (Mus musculus [14]): 48%
Activity (Mus musculus [15]): 50%
Activity (Mus musculus [16]): 10 - 47%
Activity (Mus musculus [17]): Active
inhibition in vivo at 10 mg/kg (Rattus norvegicus [18]): 32%
Activity (Mus musculus [19]): 13 g/L
Activity (Mus musculus [20]): 51%
Activity (Mus musculus [21]): 30%
Activity (Mus musculus [22]): 0%
Activity (Mus musculus [23]): 43%
Activity (Mus musculus [25]): 32 - 58%
Activity (Mus musculus [26]): 1%
Activity (Mus musculus [27]): 67 - 80%
Activity (Mus musculus [28]): 48%
inhibition in vivo at 30 mg/kg (Rattus norvegicus [29]): 53%
Activity (Mus musculus [30]): 24 - 36%
Activity (Mus musculus [31]): 20%
Activity (Mus musculus [32]): 19%
Activity (Mus musculus [33]): 69 - 85%
